Structures are written as SMILES. Where only a bound is given, the exact number is not on record here.

As a reminder, the EC50 is the midpoint of the concentration-response curve. A low value points to a more potent agent.

For the test, the target named is EGFR (Human), P00533 [T790M/L858R]. Particulars: nci-h1975.
EGFR (Human), P00533 [T790M/L858R], sequence (P00533 whole entry T790M/L858R, looked up): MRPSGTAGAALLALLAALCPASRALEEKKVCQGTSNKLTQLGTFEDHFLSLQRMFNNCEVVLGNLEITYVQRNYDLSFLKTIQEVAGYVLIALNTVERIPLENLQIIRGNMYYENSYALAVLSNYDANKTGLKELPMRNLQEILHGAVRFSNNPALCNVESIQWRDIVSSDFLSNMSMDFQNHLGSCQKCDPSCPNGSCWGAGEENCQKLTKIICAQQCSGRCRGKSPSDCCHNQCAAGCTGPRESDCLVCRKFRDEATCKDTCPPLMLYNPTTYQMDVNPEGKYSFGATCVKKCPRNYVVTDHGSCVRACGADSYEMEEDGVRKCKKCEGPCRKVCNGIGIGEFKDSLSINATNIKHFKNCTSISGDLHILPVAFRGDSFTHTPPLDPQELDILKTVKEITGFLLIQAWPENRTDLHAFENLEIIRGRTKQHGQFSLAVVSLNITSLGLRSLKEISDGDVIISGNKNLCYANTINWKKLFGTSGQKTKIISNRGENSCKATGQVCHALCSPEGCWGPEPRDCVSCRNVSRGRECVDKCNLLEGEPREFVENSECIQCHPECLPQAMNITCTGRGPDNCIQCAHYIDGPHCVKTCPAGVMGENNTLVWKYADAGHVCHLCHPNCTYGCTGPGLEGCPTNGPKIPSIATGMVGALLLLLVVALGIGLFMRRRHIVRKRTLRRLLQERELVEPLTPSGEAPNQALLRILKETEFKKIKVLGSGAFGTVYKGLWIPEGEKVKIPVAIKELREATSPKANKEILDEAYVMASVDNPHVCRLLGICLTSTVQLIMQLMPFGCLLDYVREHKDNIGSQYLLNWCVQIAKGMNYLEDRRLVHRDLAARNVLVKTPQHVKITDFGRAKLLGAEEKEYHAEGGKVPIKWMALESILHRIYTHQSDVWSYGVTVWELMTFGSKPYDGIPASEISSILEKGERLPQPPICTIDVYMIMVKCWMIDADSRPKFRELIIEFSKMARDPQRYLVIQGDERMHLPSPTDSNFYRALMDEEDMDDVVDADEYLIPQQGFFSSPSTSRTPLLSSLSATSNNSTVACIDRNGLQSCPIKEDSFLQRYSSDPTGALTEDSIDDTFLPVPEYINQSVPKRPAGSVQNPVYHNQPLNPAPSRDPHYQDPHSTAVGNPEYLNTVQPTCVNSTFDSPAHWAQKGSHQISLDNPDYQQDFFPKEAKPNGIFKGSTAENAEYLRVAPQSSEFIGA
With `CC(C)n1nc(N2CCOCC2)c2cnc(Nc3ccnc(-c4cnn(S(=O)(=O)C5CC5)c4)n3)cc21`, the EC50 is 0.266 µM.

Regarding `CC(C)n1nc(N2CCC3(CNC(=O)C3)C2)c2cnc(Nc3ccnc(-c4cnn(S(=O)(=O)C5CC5)c4)n3)cc21` (stereo not drawn), the EC50 was 1.79 µM.

In turn, `CC(C)n1nc(N2CCCC2)c2cnc(Nc3ccnc(N4CCC(O)C(C)(C)C4)n3)cc21` (stereo not drawn) had an EC50 of 0.499 µM.

In the case of `CC(C)n1nc(N2CC3(COC3)C2)c2cnc(Nc3ccnc(-c4cnn(CC5CC5)c4)n3)cc21`, the concentration for a half-maximal effect (EC50) is 0.732 µM.

`CC(C)n1nc(N2CCCNC2=O)c2cnc(Nc3ccnc(-c4cnn(S(=O)(=O)C5CC5)c4)n3)cc21` had an EC50 of 0.765 µM.

Turning to `CC(C)n1nc(N2CCOC(CO)C2)c2cnc(Nc3ccnc(-c4cnn(S(=O)(=O)C5CC5)c4)n3)cc21` (stereo not drawn), the 50% effective concentration (EC50) came to 0.241 µM.

Consider `CC(C)n1nc(NC2COC2)c2cnc(Nc3ccnc(-c4cnn(S(=O)(=O)C5CC5)c4)n3)cc21`, for which the EC50 was found to be 0.167 µM.

As to `CC(C)n1nc(N2CC[C@@H](O)C2)c2cnc(Nc3ccnc(N4CCC(C)(O)CC4)n3)cc21`, the EC50 turned out to be 0.831 µM.

The compound `CC(C)n1nc(N2CC(C(N)=O)C2)c2cnc(Nc3ccnc(-c4cnn(S(=O)(=O)C5CC5)c4)n3)cc21` displayed an EC50 of 0.938 µM.

With `CC(C)n1nc(NC(C)(C)C#N)c2cnc(Nc3ccnc(N4CC[C@H](O)[C@H](F)C4)n3)cc21`, the EC50 amounted to 8.27 µM.

For `CC(C)n1nc(N2CC(C(C)(C)C(N)=O)C2)c2cnc(Nc3ccnc(N4CCC(C)(O)CC4)n3)cc21`, the EC50 was > 10 µM.

As for `CCNC(=O)C1CN(c2nn(C(C)C)c3cc(Nc4ccnc(-c5cnn(S(=O)(=O)C6CC6)c5)n4)ncc23)C1`, the EC50 worked out at 0.484 µM.

For `CCC(C)n1nc(N2CC[C@@H](O)C2=O)c2cnc(Nc3ccnc(-c4cnn(S(=O)(=O)C5CC5)c4)n3)cc21` (stereo partly drawn), the half-maximal effective concentration (EC50) turned out to be 0.586 µM.

For the compound `COC1CCN(c2nccc(Nc3cc4c(cn3)c(N3CCCC3)nn4C(C)C)n2)CC1`, the concentration for a half-maximal effect (EC50) is 0.38 µM.

Compound `CC(C)NC(=O)C1CN(c2nn(C(C)C)c3cc(Nc4ccnc(-c5cnn(S(=O)(=O)C6CC6)c5)n4)ncc23)C1` yielded an EC50 of 0.825 µM.

Take `CC(C)n1nc(N2CCCC2=O)c2cnc(Nc3ccnc(-c4cnn(S(=O)(=O)C5CC5)c4)n3)cc21`: the concentration for a half-maximal effect (EC50) turned out to be 0.232 µM.

Compound `CC(C)n1nc(N2CC3(CN(CC(F)(F)F)C3)C2)c2cnc(Nc3ccnc(-c4cnn(S(=O)(=O)C5CC5)c4)n3)cc21` came in with an EC50 of 1.14 µM.

`CC(C)n1nc(C2CCOC2)c2cnc(Nc3ccnc(-c4cnn(S(=O)(=O)C5CC5)c4)n3)cc21` (stereo not drawn) gave an EC50 of 1.47 µM.

The compound `CC(C)n1nc(N2CC(C#N)CC2=O)c2cnc(Nc3ccnc(N4CCC(C)(O)CC4)n3)cc21` (stereo not drawn) showed an EC50 of 1.09 µM.

Consider `CC(C)n1nc(NCCS(C)(=N)=O)c2cnc(Nc3ccnc(-c4cnn(S(=O)(=O)C5CC5)c4)n3)cc21` (stereo not drawn), for which the EC50 is > 10 µM.

Compound `CC(C)n1nc(NC2CCOCC2)c2cnc(Nc3ccnc(-c4cnn(S(=O)(=O)C5CC5)c4)n3)cc21` returned an EC50 of 1.11 µM.

The compound `CC(C)n1nc(N2CC[C@@H](O)C2)c2cnc(Nc3ccnc(N4CC[C@@H](O)[C@@H](F)C4)n3)cc21` gave an EC50 of 0.404 µM.

In turn, `CC(C)n1nc(N2CCOCC2)c2cnc(Nc3ccnc(-c4cnn(CC5CC5)c4)n3)cc21` showed an EC50 of 1.84 µM.

Consider `CC(C)n1nc(NCCC2OCC(N)CO2)c2cnc(Nc3ccnc(N4CCC(C)(O)CC4)n3)cc21` (stereo not drawn), for which the EC50 is > 10 µM.

With `CC(C)n1ncc2cnc(Nc3ccnc(N4CCC(O)C(C)(C)C4)n3)cc21` (stereo not drawn), the EC50 was found to be 0.11 µM.

The compound `CC(C)n1nc(N2CC[C@@H](CO)C2)c2cnc(Nc3ccnc(-c4cnn(S(=O)(=O)C5CC5)c4)n3)cc21` came in with an EC50 of 0.162 µM.

The compound `CC[C@@H](C)n1nc(N2CC(C(C)(C)O)C2)c2cnc(Nc3ccnc(N4CC[C@@H](O)[C@@H](F)C4)n3)cc21` showed an EC50 of 0.334 µM.

Compound `CC(C)n1nc(NCCC(N)=O)c2cnc(Nc3ccnc(-c4cnn(S(=O)(=O)C5CC5)c4)n3)cc21` yielded an EC50 of 3.97 µM.

Take `CC[C@@H](C)n1nc(N2CC3(COC3)C2)c2cnc(Nc3ccnc(OCC(C)(C)S(C)(=O)=O)n3)cc21`: the EC50 is 1.24 µM.

The compound `CCC(C)n1nc(N2CCS(=N)(=O)CC2)c2cnc(Nc3ccnc(N4CCC(C)(O)CC4)n3)cc21` (stereo not drawn) came in with an EC50 of 9.98 µM.

The compound `CC[C@H](C)n1nc(N2CC(C(C)(C)O)C2)c2cnc(Nc3ccnc(N4CC[C@@H](O)[C@@H](F)C4)n3)cc21` yielded an EC50 of 0.429 µM.

The compound `CC(C)n1nc(N2CCS(=O)(=O)CC2)c2cnc(Nc3ccnc(-c4cnn(S(=O)(=O)C5CC5)c4)n3)cc21` came in with an EC50 of 2.02 µM.

`CC(C)n1nc(N2CC[C@@H](O)C2)c2cnc(Nc3ccnc(-c4cnn(S(=O)(=O)C5CC5)c4)n3)cc21` yielded an EC50 of 0.19 µM.

`CCC(C)n1nc(N2C[C@@H](CO)NC2=O)c2cnc(Nc3ccnc(-c4cnn(S(=O)(=O)C5CC5)c4)n3)cc21` (stereo partly drawn) displayed an EC50 of 5.59 µM.

Regarding `CCC(C)n1nc(N2CC[C@H](O)C2=O)c2cnc(Nc3ccnc(-c4cnn(S(=O)(=O)C5CC5)c4)n3)cc21` (stereo partly drawn), the EC50 is 0.696 µM.

The compound `CC(C)n1nc(N2CCC3(CCNC3=O)C2)c2cnc(Nc3ccnc(-c4cnn(S(=O)(=O)C5CC5)c4)n3)cc21` (stereo not drawn) had an EC50 of 0.741 µM.

`CC(C)n1nc(N2CC3(COC3)C2)c2cnc(Nc3ccnc(N4CCC(O)C(C)(C)C4)n3)cc21` (stereo not drawn) gave an EC50 of 0.159 µM.

Turning to `CC(C)n1nc(N2CCS(=N)(=O)CC2)c2cnc(Nc3ccnc(-c4cnn(S(=O)(=O)C5CC5)c4)n3)cc21`, the EC50 was determined as 0.949 µM.

Take `CC(Nc1nn(C(C)C)c2cc(Nc3ccnc(-c4cnn(S(=O)(=O)C5CC5)c4)n3)ncc12)C(N)=O` (stereo not drawn): the EC50 is 4.62 µM.

As to `CC(C)n1nc(N2CC(C(=O)NC3CC(O)C3)C2)c2cnc(Nc3ccnc(-c4cnn(S(=O)(=O)C5CC5)c4)n3)cc21` (stereo not drawn), the EC50 was > 10 µM.

The compound `CC(C)n1ncc2cnc(Nc3ccnc(-c4cnn(CC5CC5)c4)n3)cc21` gave an EC50 of 0.498 µM.

Take `Cc1cn[nH]c1-c1nn(C(C)C)c2cc(Nc3ccnc(N4CCC(O)C(C)(C)C4)n3)ncc12` (stereo not drawn): the EC50 is 1.71 µM.

The compound `CC(C)n1nc(N2CCC2)c2cnc(Nc3ccnc(-c4cnn(S(=O)(=O)C5CC5)c4)n3)cc21` yielded a 50% effective concentration (EC50) of 0.158 µM.

The compound `CC[C@H](C)n1nc(N2CC3(COC3)C2)c2cnc(Nc3ccnc(N4CC[C@@H](O)[C@@H](F)C4)n3)cc21` had an EC50 of 0.348 µM.

`CC(C)n1nc(N2CC(C(=O)N(C)C)C2)c2cnc(Nc3ccnc(-c4cnn(S(=O)(=O)C5CC5)c4)n3)cc21` came in with an EC50 of 0.159 µM.

For the compound `CC(C)n1nc(OC2CCOC2)c2cnc(Nc3ccnc(-c4cnn(S(=O)(=O)C5CC5)c4)n3)cc21` (stereo not drawn), the half-maximal effective concentration (EC50) worked out at 0.798 µM.

For `CC(n1nc(N2CCNC2=O)c2cnc(Nc3ccnc(N4CCC(C)(O)CC4)n3)cc21)C(F)(F)F` (stereo not drawn), the EC50 was 1.07 µM.

`CC(C)n1nc(N2CC(C(C)(C)C#N)C2)c2cnc(Nc3ccnc(-c4cnn(S(=O)(=O)C5CC5)c4)n3)cc21` displayed an EC50 of 1.38 µM.

As for `CCC(C)n1nc(N2CCNC2=O)c2cnc(Nc3ccnc(-c4cnn(S(=O)(=O)C5CC5)c4)n3)cc21` (stereo not drawn), the EC50 came to 0.138 µM.

As for `CCC(C)n1nc(N2CC[C@@H](C(N)=O)C2)c2cnc(Nc3ccnc(N4CCC(C)(O)CC4)n3)cc21` (stereo partly drawn), the EC50 came out at 7.17 µM.

In turn, `CCN1CCN(c2nn(C(C)C)c3cc(Nc4ccnc(-c5cnn(S(=O)(=O)C6CC6)c5)n4)ncc23)C1=O` returned an EC50 of 0.929 µM.

`CCC(C)n1nc(N2CC[C@@H](O)C2)c2cnc(Nc3ccnc(N4CCC(S(C)(=O)=O)CC4)n3)cc21` (stereo partly drawn) came in with an EC50 of 1.11 µM.

On to `CC(C)n1nc(N2CC(C(C)(C)O)C2)c2cnc(Nc3ccnc(-c4cnn(S(=O)(=O)C5CC5)c4)n3)cc21`, for which the EC50 came to 0.423 µM.

Take `CC[C@H](C)n1nc(N2CC[C@@H](O)C2)c2cnc(Nc3ccnc(N4CC[C@](C)(O)[C@H](F)C4)n3)cc21`: the EC50 came to 0.521 µM.

In turn, `CC(C)n1nc(NCC(N)=O)c2cnc(Nc3ccnc(-c4cnn(S(=O)(=O)C5CC5)c4)n3)cc21` gave an EC50 of 5.44 µM.

Regarding `CC(C)n1nc(N2CC3(C2)CS(=O)(=O)C3)c2cnc(Nc3ccnc(N4CCC(C)(O)CC4)n3)cc21`, the EC50 was found to be 3.09 µM.

As for `CCC(C)n1nc(N2CCCC2=O)c2cnc(Nc3ccnc(N4CCC(C)(O)CC4)n3)cc21` (stereo not drawn), the EC50 turned out to be 0.569 µM.

`CC[C@@H](C)n1nc(N2CC3(COC3)C2)c2cnc(Nc3ccnc(N4CC[C@@H](O)[C@@H](F)C4)n3)cc21` gave an EC50 of 0.149 µM.

In the case of `CC(C)n1nc(N)c2cnc(Nc3ccnc(-c4cnn(S(=O)(=O)C5CC5)c4)n3)cc21`, the EC50 was 0.247 µM.

For `CC(C)n1nc(N2CC(O)(CO)C2)c2cnc(Nc3ccnc(-c4cnn(S(=O)(=O)C5CC5)c4)n3)cc21`, the EC50 worked out at 0.66 µM.

In turn, `CC(O)C1CN(c2nn(C(C)C)c3cc(Nc4ccnc(-c5cnn(S(=O)(=O)C6CC6)c5)n4)ncc23)C1` (stereo not drawn) returned an EC50 of 0.266 µM.

With `CCC(C)n1nc(N2CCN(C(=O)[C@@H](C)O)CC2)c2cnc(Nc3ccnc(-c4cnn(S(=O)(=O)C5CC5)c4)n3)cc21` (stereo partly drawn), the EC50 came to 1.09 µM.

As for `CC(C)n1nc(N2CC(C(=O)N3CC4CCC(C3)O4)C2)c2cnc(Nc3ccnc(-c4cnn(S(=O)(=O)C5CC5)c4)n3)cc21`, the EC50 worked out at 0.283 µM.

As to `CC(C)Oc1nn(C(C)C)c2cc(Nc3ccnc(-c4cnn(S(=O)(=O)C5CC5)c4)n3)ncc12`, the EC50 came out at 3.59 µM.

For `CC(C)n1nc(N[C@@H]2CCOC2)c2cnc(Nc3ccnc(-c4cnn(S(=O)(=O)C5CC5)c4)n3)cc21`, the EC50 was 0.775 µM.

Consider `CC(C)n1nc(N2CCOC2=O)c2cnc(Nc3ccnc(-c4cnn(S(=O)(=O)C5CC5)c4)n3)cc21`, for which the EC50 turned out to be 0.206 µM.

`CC(C)n1nc(N2CCOCC2)c2cnc(Nc3ccnc(NCC(C)(C)S(C)(=O)=O)n3)cc21` displayed an EC50 of 1.26 µM.

`CC[C@H](C)n1nc(N2CC3(COC3)C2)c2cnc(Nc3ccnc(OCC(C)(C)S(C)(=O)=O)n3)cc21` returned an EC50 of 0.785 µM.

In the case of `CC(C)n1nc(NCCO)c2cnc(Nc3ccnc(-c4cnn(S(=O)(=O)C5CC5)c4)n3)cc21`, the EC50 was 0.877 µM.

Compound `CC(C)c1nn(C(C)C)c2cc(Nc3ccnc(-c4cnn(S(=O)(=O)C5CC5)c4)n3)ncc12` had an EC50 of 3.7 µM.

The compound `COCCNC(=O)C1CN(c2nn(C(C)C)c3cc(Nc4ccnc(-c5cnn(S(=O)(=O)C6CC6)c5)n4)ncc23)C1` had an EC50 of 1.45 µM.

In turn, `CC(C)n1nc(N2CC(O)C(F)(F)C2)c2cnc(Nc3ccnc(N4CCC(C)(O)CC4)n3)cc21` (stereo not drawn) came in with an EC50 of 1.33 µM.

With `CC(C)n1nc(NC2CCS(=O)(=O)C2)c2cnc(Nc3ccnc(-c4cnn(S(=O)(=O)C5CC5)c4)n3)cc21` (stereo not drawn), the EC50 was found to be 1.64 µM.
